Laboratory results from patent US5585382A, “Polycyclic and heterocyclic chromophores for bis-imide tumoricidals” (The DuPont Merck Pharmaceutical Company, priority 1995, dated 1996).
≈ marks a conversion by molar mass, not a printed value. Where two headings read alike, the source gives them in different places.

What was measured:
[1] = test system: Clone A human colon cancer cells; test: In vitro growth inhibition of Clone A cells (MTT, 72 hr); format: cell-based; conditions: read-out: Clone A IC50
Description: (§1) The reagents for tissue culture were purchased from GIBCO (Grand Island, N.Y.). 5-Dimethylthiazol-2-yl)-2,5-diphenyl tetrazolium bromide (MTT) was purchased from Sigma Chemical Company (St. Louis, Mo.). All agents were prepared as 2 mg/ml stock solutions in DMSO. MTT was prepared as a 1 mg/ml stock solution in Dulbecco's phosphate buffered saline (PBS). All stocks were stored frozen in the dark at -20° C.
(§2) Clone A human colon cancer cells were isolated from the heterogeneous DLD-1 colon tumor line and maintained as previously described (Dexter, D. L.; Barbosa, J. A.; Calabresi, P. Cancer Research 1979, 39, 1020; Dexter, D. L.; Spremulli, E. M.; Fligiel, A.; Barbosa, J. A.; Vogel, R.; Van Vorhees, A.; Calabresi, P. Am. J. Med. 1981, 71, 949.). Murine leukemia L1210 cells were maintained in RPMI-L medium as described (Chen, S.-F.; Ruben, R. L.; Dexter, D. L. Cancer Research 1986, 46, 5014.). All cell lines were incubated at 37° C. in a humidified atmosphere of 5% CO2 -95% air.
(§3) Exponentially growing L1210 cells (1×10^3), or Clone A cells (8×10^2) in 0.1 ml medium were seeded in a 96-well microtiter plate on day 0. On day one, 0.1 ml aliquots of medium containing graded concentrations of test compounds were added to the cell plates. After incubation at 37° C. in a humidified incubator for 72 hr, the plates containing L1210 cells were centrifuged briefly and 100 μl of the growth medium was removed. Cell cultures were incubated with 50 μl of MTT for 4 h at 37° C. (12). The resulting purple formazan precipitate was solubilized with 200 μl of 0.04 N HCl in isopropyl alcohol. Absorbance was read in a Titertek Multiskan MCC scanning well spectrophotometer (Flow Laboratories) at a test wavelength of 570 nm and a reference wavelength of 630 nm. The absorbances were stored on a floppy disk on an IBM-XT and uploaded onto a VAX computer. IC50 values were determined by a computer program that fit the data to the following equation:
(§4) Y=((Am -Ao)/(1+(X/IC50)^n))+Ao
(§5) where Am =absorbance of the control cells; Ao =absorbance of the cells in the presence of highest compound concentration; Y=observed absorbance; X=compound concentration; IC50 =dose of compound that inhibits the number of population doublings of cells to one half that of the number of population doublings of the control cells; and n equals the slope of the straight portion of the curve.
(§6) The values reported in the table are from at least one experiment performed in eight replicates. If more than one experiment was performed, the number reported is the average of all the trials

[2] = test system: Murine leukemia L1210 cells; test: In vitro growth inhibition of L1210 cells (MTT, 72 hr); format: cell-based; conditions: Mus musculus, read-out: L1210 IC50
Description: as §1, §2, §3, §4, §5, §6

| SMILES | IC50 ([1]; Clone A cells, 72 hr, MTT) [mg/L] | solubility (Solubility in water) [mg/mL] | IC50 ([2]; L1210 cells, 72 hr, MTT) [mg/L] | IC50 ([1]; 72 h) [mg/L] | IC50 ([2]; L1210, 72 h) [mg/L] |
| --- | --- | --- | --- | --- | --- |
| CS(=O)(=O)O.CS(=O)(=O)O.CS(=O)(=O)O.O=C1c2cccc3c2c(cc2ccncc23)C(=O)N1CCCCNCCCN1C(=O)c2cccc3c2c(cc2ccncc23)C1=O [Example 14, 4-[3-(6-Azaphenanthrene-1,10-dicarboximido)propylamino]-1-(6-azaphenanthrene-1,10-dicarboximido) butane Trihydromethanesulfonate] | 0.003 | 0.9 | 0.008 | – | – |
| CS(=O)(=O)O.Cc1cnc2c(c1)cc1c3c(cc([N+](=O)[O-])cc32)C(=O)N(CCCCNCCCN2C(=O)c3cc([N+](=O)[O-])cc4c3c(cc3cc(C)cnc34)C2=O)C1=O [Example 12, 4-[3-(3-Nitro-7-methyl-5-azaphenanthrene-1, 10-dicarboximido)propylamino]-1-(3-nitro-7-methyl-5-azaphenanthrene-1, 10-dicarboximido)butane Hydromethanesulfonate] | – | 0.05 | – | 0.009 | 0.027 |
| CC[C@H](CNCCNC[C@@H](CC)N1C(=O)c2cc([N+](=O)[O-])cc3c2c(cc2cc(C)cnc23)C1=O)N1C(=O)c2cc([N+](=O)[O-])cc3c2c(cc2cc(C)cnc23)C1=O [Example 24] | 0.022 (≈ 0.0281 µM) | 0.15 (≈ 192 µM) | 0.13 (≈ 0.166 µM) | – | – |
| CS(=O)(=O)O.CS(=O)(=O)O.CS(=O)(=O)O.Nc1cc2c3c(cc4cccnc4c3c1)C(=O)N(CCCCNCCCN1C(=O)c3cc(N)cc4c3c(cc3cccnc34)C1=O)C2=O [Example 9, 4-[3-(3-Amino-5-azaphenanthrene-1,10-dicarboximido)propylamino]-1-(3-amino-5-azaphenanthrene-1, 10-dicarboximido)butane Trihydromethanesulfonate] | 0.166 | 11 | 0.182 | – | – |
| CS(=O)(=O)O.Cc1c2c3c(cccc3c3ccccc13)C(=O)N(CCCCNCCCN1C(=O)c3cccc4c3c(c(C)c3ccccc34)C1=O)C2=O [Example 43, 4-[3-(9-Methylphenanthrene-1,10-dicarboximido)propylamino]-1-(9-methylphenanthrene-1, 10-dicarboximido)butane Hydromethanesulfonate] | – | 0.04 | – | 0.4 | 0.357 |
| CS(=O)(=O)O.O=C1c2cccc3c2c(cc2ccoc23)C(=O)N1CCCCNCCCN1C(=O)c2cccc3c2c(cc2ccoc23)C1=O [Example 80, 4-[3-(Naphtho[1,2-b]furan-5,6-dicarboximido)propylamino]-1-(naphtho[1,2-b]furan-5,6-dicarboximido)butane Hydromethanesulfonate] | 0.635 | 0.42 | 0.389 | – | – |
| C[C@H](CNC[C@@H](C)N1C(=O)c2cc([N+](=O)[O-])cc3c2c(cc2cccnc23)C1=O)NC[C@@H](C)N1C(=O)c2cc([N+](=O)[O-])cc3c2c(cc2cccnc23)C1=O [Example 21] | 0.005 (≈ 0.00675 µM) | 7.7 (≈ 10400 µM) | 0.042 (≈ 0.0567 µM) | – | – |
| CS(=O)(=O)O.O=C1c2cccc3c2c(cc2ccccc23)C(=O)N1CCCCNCCCN1C(=O)c2cccc3c2c(cc2ccccc23)C1=O [Example 40, 4-[3-(Phenanthrene-1, 10-dicarboximido)propylamino]-1-(phenanthrene-1, 10-dicarboximido) butane Hydromethanesulfonate] | – | 0.06 | – | 0.412 | 0.098 |
| CS(=O)(=O)O.CS(=O)(=O)O.CS(=O)(=O)O.Cc1nc2cc3c4c(cccc4c2[nH]1)C(=O)N(CCCCNCCCN1C(=O)c2cccc4c2c(cc2nc(C)[nH]c24)C1=O)C3=O [Example 81, 4-[3-(2-Methyl-1H-naphth[1,2-d]imidazole-5,6-dicarboximido)propylamino]-1-(2-methyl-1H-naphth[1,2-d]imidazole-5,6-dicarboximido)butane Trihydromethanesulfonate] | 22.2 | 7.6 | 0.201 | – | – |
| CS(=O)(=O)O.Cc1ccc2c(C)c3c4c(cccc4c2c1)C(=O)N(CCCCNCCCN1C(=O)c2cccc4c2c(c(C)c2ccc(C)cc24)C1=O)C3=O [Example 46, 4-[3-(6,9-Dimethylphenanthrene-1,10-dicarboximido)propylamino]-1-(6,9-dimethylphenanthrene-1, 10-dicarboximido)butane Hydromethanesulfonate] | – | 0.04 | – | 0.958 | 0.414 |
| CS(=O)(=O)O.Cc1cccc2c1cc1c3c(cccc32)C(=O)N(CCCCNCCCN2C(=O)c3cccc4c3c(cc3c(C)cccc34)C2=O)C1=O [Example 42, 4-[3-(8-Methylphenanthrene-1,10-dicarboximido)propylamino]-1-(8-methylphenanthrene-1, 10-dicarboximido)butane Hydromethanesulfonate] | – | 0.06 | – | 0.271 | 0.137 |
| CS(=O)(=O)O.O=C1c2cccc3c2c(cc2ccc(C(F)(F)F)cc23)C(=O)N1CCCCNCCCN1C(=O)c2cccc3c2c(cc2ccc(C(F)(F)F)cc23)C1=O [Example 44, 4-(3-[6-(Trifluoromethyl)phenanthrene-1,10-dicarboximido]propylamino)-1-[6-(trifluoromethyl)phenanthrene-1, 10dicarboximido]butane Hydromethanesulfonate] | – | 0.27 | – | 1.01 | 0.888 |
| CCc1ccc2cc3c4c(cccc4c2c1)C(=O)N(CCCCNCCCN1C(=O)c2cccc4c2c(cc2ccc(CC)cc24)C1=O)C3=O.CS(=O)(=O)O [Example 47, 4-[3-(6-Ethylphenanthrene-1, 10-dicarboximido)propylamino]-1-(6-ethylphenanthrene-1, 10-dicarboximido)butane Hydromethanesulfonate] | – | 0.15 | – | 0.763 | 0.378 |
| O=C1c2cccc3c2c(cc2cnccc23)C(=O)N1CCCCNCCCN1C(=O)c2cccc3c2c(cc2cnccc23)C1=O [Example 15, 4-[3-(7-Azaphenanthrene-1,10-dicarboximido)propylamino]-1-(7-azaphenanthrene-1,10dicarboximido) butane 2.5-Hydromethanesulfonate] | 0.002 (≈ 0.00329 µM) | 0.81 (≈ 1330 µM) | 0.002 (≈ 0.00329 µM) | – | – |
| O=C1c2cccc3cc([N+](=O)[O-])cc(c23)C(=O)N1CCCCNCCCN1C(=O)c2cccc3c2c(cc2cccnc23)C1=O [Example 124] | – | 0.29 (≈ 482 µM) | 0.011 (≈ 0.0183 µM) | – | – |
| CS(=O)(=O)O.CS(=O)(=O)O.C[C@@H](CNCCNC[C@H](C)N1C(=O)c2cccc3c2c(cc2ccc([N+](=O)[O-])cc23)C1=O)N1C(=O)c2cccc3c2c(cc2ccc([N+](=O)[O-])cc23)C1=O [Example 52, (S,S)-1,2-bis-[2-(6-Nitrophenanthrene-1,10-dicarboximido)propylamino]ethane Dihydromethanesulfonate] | – | – | – | 0.044 | 0.082 |
| C[C@H](CNCCNC[C@@H](C)N1C(=O)c2cccc3c2c(cc2ccc(F)cc23)C1=O)N1C(=O)c2cccc3cc([N+](=O)[O-])cc(c23)C1=O [Example 120] | – | – | – | 0.013 (≈ 0.0201 µM) | 0.261 (≈ 0.403 µM) |
| C[C@H](CNCCNC[C@@H](C)N1C(=O)c2cc([N+](=O)[O-])cc3c2c(cc2cccnc23)C1=O)N1C(=O)c2cccc3cc([N+](=O)[O-])cc(c23)C1=O [Example 123] | – | 5.77 (≈ 8540 µM) | 0.013 (≈ 0.0192 µM) | – | – |
| COc1cc2cc3c4c(cccc4c2cc1OC)C(=O)N(CCCCNCCCN1C(=O)c2cccc4c2c(cc2cc(OC)c(OC)cc24)C1=O)C3=O.CS(=O)(=O)O [Example 55, 4-[3-(6,7-Dimethoxyphenanthrene-1,10-dicarboximido)propylamino]-1-(6,7-dimethoxyphenanthrene-1,10-dicarboximido)butane Hydromethanesulfonate] | – | – | – | 5.43 | 0.356 |
| CS(=O)(=O)O.Cc1cnc2c(c1)cc1c3c(cccc32)C(=O)N(CCCCNCCCN2C(=O)c3cccc4c3c(cc3cc(C)cnc34)C2=O)C1=O [Example 10, 4-[3-(7-Methyl-5-azaphenanthrene-1,10-dicarboximido)propylamino]-1-(7-methyl-5-azaphenanthrene-1, 10-dicarboximido)butane Hydromethanesulfonate] | 0.346 | – | 0.588 | – | – |
